US4663326A, “Pyrazolo[4,3-d]pyrimidine-5,7-(4H,6H)dione or -5-thione-7-one analogs” (Warner-Lambert Company, priority 1985, dated 1987)

How the values were obtained:
[1] = test system: Type 1 Phosphodiesterase; assay: PDE inhibition, Type 1 phosphodiesterase, smooth muscle (bovine coronary arteries); assay type: biochemical; conditions: 1 × 10^-5 M
Excerpt: The method of Thompson, et al (Thompson, W. J., Terasaki, W. L., Epstein, P. M., Strada, S. J., Adv. Cyclic Nucleotide Res., 10:69-92, 1979), with minor modifications, was used to isolate phosphodiesterases from vascular smooth muscle. Bovine coronary arteries (right, anterior descending, and left circumflex arteries) from hearts obtained from a local slaughterhouse were used for these studies. Arteries from two hearts were used for each isolation. Hearts were kept on ice and the arteries were dissected within two hours after the animals were sacrificed. After removing all fat and connective tissue, the arteries were everted, cut into cubes with a single edge razor blade and homogenized with a Brinkman Polytron three times at a rheostat setting of 10.0 in four volumes of the PDE isolation buffer (10 mM Tris-HCl/pH 7.5, 2 mM MgCl2, and 1 mM dithiothreitol). The resulting homogenate was sonicated (30 sec/ml homogenate) and then centrifuged at 30,000×g for 20 minutes. This and all subsequent procedures were performed at 4° C. The resulting supernatant was filtered through four layers of gauze, and applied to a DEAE-cellulose column (30×1.5 cm), prepared as described by Cheung (Cheung, W. Y., Biochim. Biopphys. Acta, 191:303-315, 1969), and equilibrated with freshly prepared 70 mM sodium acetate/5 mM 2-mercaptoethanol (pH 6.5). The column was then washed with 2-3 bed volumes of sodium acetate/2-mercaptoethanol, after which the phosphodiesterases were eluted from the column using a continuous 70-1,000 mM sodium acetate gradient (pH 6.5, containing 5 mM 2-mercaptoethanol; total volume 400 ml). The flow rate was approximately equal to 25 ml/hr. Eight ml fractions were collected and assayed for cyclic AMP- and cyclic GMP-phosphodiesterase activity in the presence and absence of 0.1 units of calmodulin and 10 mM CaCl2. Appropriate fractions were pooled and dialyzed against 70 mM sodium acetate/5 mM 2-mercaptoethanol for 20 hours.
Following complete separation, the combined phosphodiesterase fractions were concentrated to 14% of the original volume using an Amicon ultrafiltration cell fitted with a UM-10 membrane, according to the method of Wells, et al (Wells, J. N., Baird, C. E., Wu, Y. J., Hardman, J. G., Biochim. Biophys. Acta, 384:430-442, 1975). Following concentration, the protein was then diluted to 65% with ethylene glycol monoethyl ether, and stored at -20° C.
Phosphodiesterase activity was measured as described previously (Weishaar, P. E., Quade, M., Boyd, D., Schenden, J., Mark, S. S., Kaplan, H. R., Drug Devel. Res., 3:517-534, 1983), in a reaction medium containing 40 mM Tris-HCl (pH 8.0), 5 mM MgCl and 4 mM 2-mercaptoethanol. Unless otherwise noted, the concentration of substrate (^3 H-cyclic AMP or ^3 H-cyclic GMP) was 1.0 μM. […]

[2] = test system: pentobarbital-anesthetized dog; assay: In vivo myocardial inotropic activity in anesthetized dog (CVAD); set-up: species or system dog (adult mongrel); conditions: for Percent Change Heart Rate / Percent Change Myocardial Contractility / Percent Change Blood Pressure (second value) / Percent Change Blood Pressure (first value): intravenous; for Percent Change Blood Pressure (second value): value after the slash; for Percent Change Blood Pressure (first value): value before the slash
Method: This test procedure is described in the following paragraphs.
This screen consists of determining the effects of increasing intravenous doses of compound on mycardial contractility (dP/dt max of left ventricular blood pressure), heart rate, and aortic blood pressure of the pentobarbital-anesthetized dog.
Adult mongrel dogs of either sex are anesthetized with pentobarbital, 35 mg/kg, IV, and are subsequently maintained under anesthesia with a continuous infusion of pentobarbital, 3.5 mg/kg/hour. The trachea is intubated but the animals are permitted to breathe spontaneously. A cannula is inserted into the femoral vein for administrating test agents. A Millar catheter tip pressure transducer or a fluid filled catheter is inserted into the ascending aorta via the femoral artery for measuring aortic blood pressure. A Millar catheter tip pressure transducer is passed into the left ventricle via the left carotid artery for measuring left ventricular blood pressure. Needle electrodes are placed subcutaneously for recording a lead II electrocardiogram (ECG).
Left ventricular and aortic blood pressures are recorded on a strip chart recorder. Heart rate, using a biotachometer triggered from the R wave of the ECG, and the first derivative of left ventricular blood pressure (dP/dt), obtained with a differentiator amplifier coupled to the corresponding pressure amplifier, are also recorded. A period of at least 30 minutes is utilized to obtain control data prior to administration of test compound.
Depending on solubility, the compounds are dissolved in 0.9% saline solution or in dilute HCl or NaOH (0.1 to 1.0N) and are diluted to volume with normal saline. Ethanol or dimethylacetamide can be used as solvents if adequate dilutions can be made. Appropriate vehicle controls are administered when needed.
Each dose of the test compound is administered in a volume of […] over a period of one minute.

[3] = test system: histamine; assay: Bronchodilator test (BCA), histamine spasmogen, guinea pigs; assay type: in vivo, Hartley Guinea Pigs; set-up: key: Active; conditions: 50 mg/kg
Excerpt: The compounds of this invention may be determined to have antiallergy activity by a standard laboratory means employing the bronchodilator test (BCA) readily accepted as a standard for antiallergy activity, which is described in Siegmund, H. O., et al (J. Pharmacol. and Exptl., 90:254, 1949 and Herxheimer, H., J. Physiol., 117: 252-255, 1952). Thus, antiallergy activity was found for compounds of this invention by this BCA test using Hartley Guinea Pigs by the procedures as described below.
Naive (BCA) pigs are exposed to spasmogen for ten minutes by means of a De Vilbiss number 40 nebulizer positioned at the back of a closed, six unit plexiglas chamger (19×12.5×9"). Air flow is adjusted to give a pressure of 10 lbs/in; six animals per treatment are averaged, and the mean value for compound treated animals is compared to that for animals treated with vehicle. […]
The spasmogen may be acetylcholine chloride (0.3%), histamine (0.1%), methacholine chloride (Mecholyl) (0.1%) or serotonin creatinine sulfate. Each nebulizer dispenses 0.2 cc/minute.

[4] = intravenously at about 0.01 to 0.31 mg/kg

| SMILES | % Inhibition of 3H-cAMP Hydrolysis, Type 1 Phosphodiesterase [1] | % Inhibition of 3H-cGMP Hydrolysis, Type 1 Phosphodiesterase [1] | Percent Change Heart Rate ([2]; 0.10 mg/kg) [%] | Percent Change Myocardial Contractility ([2]; 0.10 mg/kg) [%] | Percent Change Blood Pressure (second value) ([2]; 0.10 mg/kg) [%] | Percent Change Blood Pressure (first value) ([2]; 0.10 mg/kg) [%] | Percent Change Heart Rate ([2]; 1.00 mg/kg) [%] | Percent Change Myocardial Contractility ([2]; 1.00 mg/kg) [%] | Percent Change Blood Pressure (second value) ([2]; 1.00 mg/kg) [%] | Percent Change Blood Pressure (first value) ([2]; 1.00 mg/kg) [%] | Percent Change Heart Rate ([2]; 3.10 mg/kg) [%] | Percent Change Myocardial Contractility ([2]; 3.10 mg/kg) [%] | Percent Change Blood Pressure (second value) ([2]; 3.10 mg/kg) [%] | Percent Change Blood Pressure (first value) ([2]; 3.10 mg/kg) [%] | other results |
| --- | --- | --- | --- | --- | --- | --- | --- | --- | --- | --- | --- | --- | --- | --- | --- |
| Cc1nn(C)c2c(=O)[nH]c(=O)[nH]c12 [Example 1, 1,3-Dimethylpyrazolo[4,3-d]pyrimidine-5,7-(4H, 6H)dione] | N (0-20% inhibition at 1 × 10^-5 M) | N (0-20% inhibition at 1 × 10^-5 M) | 1 | 5 | 1 | 1 | 5 | 41 | -2 | 0 | 15 | 90 | -4 | -2 | Percent Change Heart Rate ([2]; 0.31 mg/kg): 1%; Percent Change Myocardial Contractility ([2]; 0.31 mg/kg): 13%; Percent Change Blood Pressure (second value) ([2]; 0.31 mg/kg): -1%; Percent Change Blood Pressure (first value) ([2]; 0.31 mg/kg): 1%; blood pressure (in words) [2, 4]: moderate reduction in blood pressure; cardiac contractility (in words) [2, 4]: dose related significant increases in cardiac contractility; heart rate (in words) [2, 4]: only low or minimal changes in heart rate; BCA Results, Ratings [3]: A |
| CCn1nc(C)c2[nH]c(=S)[nH]c(=O)c21 [Example 2, 1-Ethyl-1,4,5,6-tetrahydro-3-methyl-pyrazolo[4,3-d]pyrimidine-5-thione-7-on] | N (0-20% inhibition at 1 × 10^-5 M) | N (0-20% inhibition at 1 × 10^-5 M) | 3 | 5 | -1 | -1 | -1 | 13 | -4 | -2 | 5 | 45 | -9 | -6 | Percent Change Heart Rate ([2]; 0.30 mg/kg): 2%; Percent Change Myocardial Contractility ([2]; 0.30 mg/kg): 8%; Percent Change Blood Pressure (second value) ([2]; 0.30 mg/kg): -4%; Percent Change Blood Pressure (first value) ([2]; 0.30 mg/kg): -3% |
